From US11090321B2, “Mixture of non-digestible oligosaccharides for stimulating the immune system” (N.V. Nutricia, priority 2009, dated 2021)

Tested on: C57BL/6 mice
Assay: Delayed-type hypersensitivity (DTH) ear swelling response after Influvac vaccination in diet-supplemented mice
Type: in vivo, mouse
Protocol: The effect of diets comprising 2′-FL and/or betagalacto-oligosaccharides was tested in a mouse model wherein a response to an antigen is measured by a delayed-type hypersensitivity (DTH) response. This DTH response in the ears after local challenge with an antigen present in a vaccine is a measure of Th1 cell proliferation. During response to infection and/or vaccination Th1 cells proliferate in response to the challenge with the antigen. These Th1 cells infiltrate the ear when the ear is subsequently challenged with the antigen and cause swelling. Infiltration with the Th1 cells in the ear takes about 24 h and the swelling is therefore delayed. The more Th1 cells proliferated during initial vaccination and/or infection, the more DTH upon challenging with the antigen is observed.
6-8 Weeks old female C57BL/6 mice (Charles River) received semi-purified AIN-93G-based diets (Research Diet Service, Wijk bij Duurstede, the Netherlands), comprising
1) 1 wt % betagalacto-oligosaccharide (GOS, source Vivinal GOS, Borculo Domo), fructo-oligosaccharide (FOS, Source RaftilineHP, Orafti) and galacturonic acid oligosaccharide (source AOS) in a 9:1:1.1 ratio. AOS were produced from pectin (Südzucker AG, Mannheim, Germany), with a DP of 1-20. It consists of approximately 75% galacturonic acid oligomers, based on total weight,
2) 1 wt % 2′fucosyllactose (2′-FL),
3) 1 wt % betagalacto-oligosaccharides, fructo-oligosaccharides and galacturonic acid oligosaccharide (AOS) in a 9:1:1.1 ratio and 1 wt % 2′-FL.
4) 0.5 wt % betagalacto-oligosaccharides, fructo-oligosaccharides and galacturonic acid oligosaccharide (AOS) in a 9:1:1.1 ratio and 0.5 wt % 2′-FL.
All groups were compared to the unsupplemented control diet (control and sham control group). Dietary supplementation started 14 days before the first vaccination and lasted until the end of the experiment, 31 days after the first vaccination.
Vaccination experiments were performed using Influvac (Solvay Pharmaceuticals, Weesp, the Netherlands) from season 2005/2006. The mice received a primary vaccination and a booster vaccination, consisting of a subcutaneous (sc) injection of a 1:1 mix of vaccine and adjuvant in a total volume of 100 μl. The booster vaccination was given at 21 days after the primary vaccination. The experiments ended 10 days after booster vaccination. Negative control groups that were included received injections with a 1:1 mix of PBS and adjuvant in a total volume of 100 μl (sham control). Ear thickness was measured in duplicate before vaccine challenge and 24 h thereafter, using a digital micrometer (Mitutoyo Digimatic 293561, Veenendaal, the Netherlands). The DTH response was calculated by subtracting the basal ear thickness from the value at 24 h after challenge.

With 2′-fucosyllactose [1% 2′-FL] the “increase of DTH response” value (compared with control diet) was 71%, the “effect on ear swelling / DTH response (in words)” value (compared with control-fed animals) was “increased ear swelling” and the “Δ DTH” value (ear swelling DTH minus sham control) was 80.4 μm. For the same substance, the “Relative DTH” value (Δ DTH relative to control diet (=1)) was 1.71.
